Measured values reported in article PMC10350927 (Journal of Medicinal Chemistry, 2023).
Positions count from the first letter of the chain named. Marks after values point to notes of the source that are not given here.

Assays:
hSUCNR1 [1] = target: T1, hSUCNR1 (Homo sapiens, UniProt Q9BXA5); test: BRET competition binding using 46 as tracer, hSUCNR1; conditions: […] 46, Kd = 310 nM
T1 sequence (Q9BXA5 1-334): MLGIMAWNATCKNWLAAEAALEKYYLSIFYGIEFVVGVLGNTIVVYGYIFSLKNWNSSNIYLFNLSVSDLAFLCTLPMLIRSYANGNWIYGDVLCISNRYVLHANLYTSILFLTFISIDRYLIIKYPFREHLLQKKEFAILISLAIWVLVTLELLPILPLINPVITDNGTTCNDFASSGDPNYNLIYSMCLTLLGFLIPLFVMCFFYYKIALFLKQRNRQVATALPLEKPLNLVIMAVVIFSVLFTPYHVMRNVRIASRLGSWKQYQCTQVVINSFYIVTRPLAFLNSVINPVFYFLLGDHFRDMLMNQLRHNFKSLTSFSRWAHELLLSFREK

mSUCNR1 [2] = target: T2, mSUCNR1 (Mus musculus, UniProt Q99MT6); test: BRET competition binding using 22 as tracer, mSUCNR1; conditions: 1 μM 22, Kd = […]; highest unlabeled ligand 30 μΜ
T2 sequence (Q99MT6 1-317): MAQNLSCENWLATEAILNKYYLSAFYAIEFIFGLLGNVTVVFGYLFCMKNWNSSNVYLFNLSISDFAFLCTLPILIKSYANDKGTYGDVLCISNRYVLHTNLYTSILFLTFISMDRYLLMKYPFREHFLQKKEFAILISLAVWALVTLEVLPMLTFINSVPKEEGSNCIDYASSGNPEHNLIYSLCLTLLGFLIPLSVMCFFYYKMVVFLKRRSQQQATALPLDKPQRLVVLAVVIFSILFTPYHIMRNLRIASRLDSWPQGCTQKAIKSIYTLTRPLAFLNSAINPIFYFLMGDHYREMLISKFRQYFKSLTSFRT

hmSUCNR1 [3] = target: T3, hmSUCNR1 (Mus musculus, UniProt Q99MT6, G84W/K269N/N18E); test: BRET competition binding using 22 as tracer, hmSUCNR1
T3 sequence (Q99MT6 1-317 N18E/G84W/K269N): T2 sequence (Q99MT6 1-317) with N18E, G84W, K269N

[4] = target: T4, hmSUCNR1 (N18^1.31E, K269^7.32N, and G84^EL1W) (Mus musculus, UniProt Q99MT6, G84W/K269N/N18E); test: cAMP assay, inhibition of succinate response at hmSUCNR1; format: cell-based; conditions: read-out: hmSUCNR1 cAMP pIC50 (converted)
T4 construct: mGlu5 glutamate receptor signal peptide (N); expressed in transfected cells; the methods describe Flp-In T-REx 293
T4 sequence (Q99MT6 1-317 N18E/G84W/K269N): T2 sequence (Q99MT6 1-317) with N18E, G84W, K269N

[5] = target: T5, mSUCNR1-N18^1.31E/K269^7.32N (Mus musculus, UniProt Q99MT6, K269N/N18E); test: G protein activation BRET assay, mSUCNR1-N18E/K269N; format: cell-based; conditions: against an EC80 concentration of succinate
T5 construct: expressed in transfected cells; host or cells: HEK-293T
T5 sequence (Q99MT6 1-317 N18E/K269N): T2 sequence (Q99MT6 1-317) with N18E, K269N
Protocol: G protein activation assays were carried out using the open-source TRUPATH platform previously described.[36]

hmSUCNR1 [6] = target: T3, hmSUCNR1; test: BRET competition binding using 46 as tracer, hmSUCNR1
hSUCNR1 [7] = target: T1, hSUCNR1; test: cAMP assay, inhibition of succinate response at hSUCNR1; format: cell-based; design: expressed in transfected cells; host or cells: Flp-In T-REx 293; conditions: inhibition of […] succinate response; mean ± SEM
[8] = target: T6, mSUCNR1 construct containing N18^1.31E, K269^7.32N, and G84^EL1W (Mus musculus, UniProt Q99MT6, G84W/K269N/N18E); test: G protein activation BRET assay, mSUCNR1-N18E/G84W/K269N; format: cell-based
T6 construct: expressed in transfected cells; host or cells: HEK-293T
T6 sequence (Q99MT6 1-317 N18E/G84W/K269N): T2 sequence (Q99MT6 1-317) with N18E, G84W, K269N
Protocol: G protein activation assays were carried out using the open-source TRUPATH platform previously described.[36] HEK-293T cells were transfected with Gαi1-Rluc8, Gγ8-GFP^2, Gβ3 and either human, mouse, mouse-N18E/K269N, or mouse-N18E/G84W/K269N SUCNR1 in a 1:1:1:1 plasmid mass ratio using polyethyleneimine.

hSUCNR1 [9] = target: T1, hSUCNR1; test: BRET competition binding using 22 as tracer, hSUCNR1; conditions: 3 μM 22, Kd = 990 nM; mean ± SEM, three experiments
Nluc-mSUCNR1 = target: T7, Nluc-mSUCNR1 (Mus musculus, UniProt Q99MT6); test: cAMP assay, agonist potency at Nluc-mSUCNR1; conditions: N-terminally Nluc-tagged receptor
T7 sequence (Q99MT6 1-317): T2 sequence (Q99MT6 1-317)

hSUCNR1 [10] = target: T1, hSUCNR1; test: cAMP assay, agonist potency at hSUCNR1; format: cell-based; design: expressed in transfected cells; host or cells: Flp-In T-REx 293; conditions: Flp-In T-REx 293 cells, mean ± SEM, minimum three independent experiments
mSUCNR1 [11] = target: T2, mSUCNR1; conditions: transiently transfected HEK-293T cells
mSUCNR1 [12] = target: T2, mSUCNR1; test: cAMP assay, agonist potency at mSUCNR1; format: cell-based; design: expressed in transfected cells; host or cells: Flp-In T-REx 293; conditions: Flp-In T-REx 293 cells; for cAMP mSUCNR1 pEC50: mean ± SEM, minimum three independent experiments

For `CN1CCN(Cc2ccc(-c3cccc(C(=O)Nc4ccccc4CC(=O)O)c3)cc2)CC1` [Compound 1, 4-((3′-((2-(Carboxymethyl)phenyl)carbamoyl)-[1,1′-biphenyl]-4-yl)methyl)-1-methylpiperazin-1-ium 2,2,2-trifluoroacetate], the “Competion binding using 46 hSUCNR1 pKi” value (hSUCNR1 [1]) was 7.1 ± 0.1, the “Competion binding using 22 mSUCNR1 pKi” value (mSUCNR1 [2]) was 5.1 ± 0.0 and the Ki (hmSUCNR1 [3]) was 0.0501 µM. For the same compound, the IC50 [4] was 0.0794 µM, the “antagonism against mSUCNR1-N18^1.31E/K269^7.32N” value [5] was “no measurable antagonism” and the Ki (hmSUCNR1 [6]) was 0.0631 µM. For the same compound, the “cAMP hSUCNR1 pIC50” value (hSUCNR1 [7]) was 7.07 ± 0.21, the “antagonism at mSUCNR1 N18^1.31E, K269^7.32N, G84^EL1W mutant” value ([8]; against an EC80 concentration of succinate) was “a level of antagonism similar to that with hSUCNR1” and the “Competion binding using 22 hSUCNR1 pKi” value (hSUCNR1 [9]) was 7.4 ± 0.1.
With `O=C(O)Cc1ccccc1NC(=O)c1cccc(-c2ccc(Cl)cc2)c1` [Compound 32, 2-(2-(4′-Chloro-[1,1′-biphenyl]-3-carboxamido)phenyl)acetic acid] the “Competion binding using 46 hSUCNR1 pKi” value (hSUCNR1 [1]) was 7.6 ± 0.1, the “Competion binding using 22 mSUCNR1 pKi” value (mSUCNR1 [2]) was <4.5 ^d and the Ki (hmSUCNR1 [3]) was 0.316 µM. For the same compound, the “fold lower affinity at hmSUCNR1 compared to hSUCNR1” value (hmSUCNR1 [3]; competition binding) was ~10 fold, the Ki (hmSUCNR1 [6]) was 0.251 µM and the “cAMP hSUCNR1 pIC50” value (hSUCNR1 [7]) was 6.31 ± 0.18. The “Competion binding using 22 hSUCNR1 pKi” value (hSUCNR1 [9]) was 7.8 ± 0.3.
For `O=C(O)CCC(=O)O` [Succinate], the “Competion binding using 46 hSUCNR1 pKi” value (hSUCNR1 [1]) was 3.2 ± 0.1, the “Competion binding using 22 mSUCNR1 pKi” value (mSUCNR1 [2]) was 3.3 ± 0.1 and the Ki (hmSUCNR1 [3]) was 1000 µM. For the same compound, the “Nluc-mSUCNR1 cAMP pEC50” value (Nluc-mSUCNR1) was 5.69 ± 0.11, the “cAMP hSUCNR1 pEC50” value (hSUCNR1 [10]) was 5.04 ± 0.02 and the EC50 (hSUCNR1 [10]; read-out: cAMP hSUCNR1 pEC50 (converted)) was ~10 µM. For the same compound, the “G protein activation pEC50 at mSUCNR1” value (mSUCNR1 [11]) was 5.29 ± 0.12, the Ki (hmSUCNR1 [6]) was 631 µM and the “G protein activation pEC50 at mSUCNR1 N18^1.31E, K269^7.32N, G84^EL1W” value ([8]; transiently transfected HEK-293T cells) was 4.28 ± 0.09. The Emax (mSUCNR1 [12]) was 100%, the “cAMP mSUCNR1 pEC50” value (mSUCNR1 [12]) was 5.02 ± 0.10 and the “cAMP mSUCNR1 pEC50” value (mSUCNR1 [12]; listed as succinate) was ~5.0. The “Competion binding using 22 hSUCNR1 pKi” value (hSUCNR1 [9]) was 3.7 ± 0.1.
